Test results published in PubChem BioAssay (NCI).
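Cultured in 96-well plates, cells were exposed to test compound for 48 hours across five concentrations. Abbreviation: GI50, concentration required for 50% inhibition of growth. TGI marks complete inhibition of growth.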

Columns and labels:
Experiment in all cases: DTP human tumour cell line panel, 48 h; in the data active = GI50 below about 0.43 µM; inactive = the rest
SK-MEL-2 melanoma = test system: SK-MEL-2 melanoma
NCI-H226 lung = test system: NCI-H226 lung
NCI/ADR-RES ovarian = test system: NCI/ADR-RES ovarian
T-47D breast = test system: T-47D breast
SK-MEL-5 melanoma = test system: SK-MEL-5 melanoma
NCI-H522 lung = test system: NCI-H522 lung
SK-MEL-28 melanoma = test system: SK-MEL-28 melanoma
HCT-116 colon = test system: HCT-116 colon
RPMI-8226 leukemia = test system: RPMI-8226 leukemia
DU-145 prostate = test system: DU-145 prostate
SF-268 CNS = test system: SF-268 CNS
SN12C renal = test system: SN12C renal
IGROV1 ovarian = test system: IGROV1 ovarian
786-0 renal = test system: 786-0 renal
PC-3 prostate = test system: PC-3 prostate
RXF 393 renal = test system: RXF 393 renal
NCI-H460 lung = test system: NCI-H460 lung
HS 578T breast = test system: HS 578T breast
OVCAR-5 ovarian = test system: OVCAR-5 ovarian
SF-295 CNS = test system: SF-295 CNS
M14 melanoma = test system: M14 melanoma
K-562 leukemia = test system: K-562 leukemia
UACC-62 melanoma = test system: UACC-62 melanoma
OVCAR-4 ovarian = test system: OVCAR-4 ovarian
CCRF-CEM leukemia = test system: CCRF-CEM leukemia
HOP-92 NSCLC = test system: HOP-92 NSCLC
CAKI-1 renal = test system: CAKI-1 renal
SNB-75 CNS = test system: SNB-75 CNS

Cn1cc(C2=C(c3cn(C)c4ncccc34)C(=O)NC2=O)c2ccccc21
> 23.2 µM: TGI (RPMI-8226 leukemia)
> 17.6 µM: TGI (SK-MEL-5 melanoma)
10.7 µM: TGI (RXF 393 renal)
12.8 µM: TGI (SK-MEL-2 melanoma)
> 17.2 µM: TGI (CAKI-1 renal)
> 22.9 µM: TGI (CCRF-CEM leukemia) | TGI (HOP-92 NSCLC)
> 23.5 µM: TGI (T-47D breast)
> 19.1 µM: TGI (HS 578T breast)
> 25 µM: TGI (NCI/ADR-RES ovarian) | TGI (NCI-H522 lung) | TGI (SK-MEL-28 melanoma) | TGI (HCT-116 colon) | TGI (DU-145 prostate) | TGI (SF-268 CNS) | TGI (SN12C renal) | TGI (IGROV1 ovarian) | TGI (786-0 renal) | TGI (PC-3 prostate) | TGI (NCI-H460 lung) | TGI (OVCAR-5 ovarian) | TGI (SF-295 CNS) | TGI (M14 melanoma) | TGI (K-562 leukemia) | TGI (UACC-62 melanoma) | TGI (OVCAR-4 ovarian)
16.5 µM: TGI (NCI-H226 lung)
inactive: GI50 (SK-MEL-2 melanoma) 6.31 µM | GI50 (NCI-H226 lung) 5.45 µM | GI50 (NCI/ADR-RES ovarian) 11.5 µM | GI50 (T-47D breast) 7.56 µM | GI50 (SK-MEL-5 melanoma) 6.27 µM | GI50 (NCI-H522 lung) 10.2 µM | GI50 (SK-MEL-28 melanoma) 8.56 µM | GI50 (HCT-116 colon) 8.39 µM | GI50 (RPMI-8226 leukemia) 9.04 µM | GI50 (DU-145 prostate) 13.1 µM | GI50 (SF-268 CNS) 9.13 µM | GI50 (SN12C renal) 6.9 µM | GI50 (IGROV1 ovarian) 15.5 µM | GI50 (786-0 renal) 8.72 µM | GI50 (PC-3 prostate) 8.27 µM | GI50 (RXF 393 renal) 3.8 µM | GI50 (NCI-H460 lung) 9.96 µM | GI50 (HS 578T breast) 4.17 µM | GI50 (OVCAR-5 ovarian) 10.4 µM | GI50 (SF-295 CNS) 7.18 µM | GI50 (M14 melanoma) 9.74 µM | GI50 (K-562 leukemia) 6.99 µM | GI50 (UACC-62 melanoma) 11.7 µM | GI50 (OVCAR-4 ovarian) 17.8 µM | GI50 (CCRF-CEM leukemia) 8.41 µM | GI50 (HOP-92 NSCLC) 7.71 µM | GI50 (CAKI-1 renal) 4.79 µM | GI50 (SNB-75 CNS) 0.669 µM
> 23.6 µM: TGI (SNB-75 CNS)
